This assay concerns the target T1, PIKfyve (Homo sapiens, UniProt Q9Y2I7).
T1 construct: endogenous in cells; host or cells: VCaP
Description: Degradation of PIKfyve proteins in VCaP tumor cells (24 h, Western blot). Format: cell-based. The settings on record: 37° C., compared with DMSO control, WB, read-out: DC50 (concentration that achieves 50% degradation activity). Summed up:
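VCaP cells (5×10^6 cells/ml) treated with a range of compound concentrations at 37° C for 24 h, then lysed in SDS buffer. PIKfyve level measured by Western blot with GAPDH as loading control and ECL detection. DC50 is the concentration giving 50% degradation relative to DMSO control.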
T1 sequence (Q9Y2I7 whole entry): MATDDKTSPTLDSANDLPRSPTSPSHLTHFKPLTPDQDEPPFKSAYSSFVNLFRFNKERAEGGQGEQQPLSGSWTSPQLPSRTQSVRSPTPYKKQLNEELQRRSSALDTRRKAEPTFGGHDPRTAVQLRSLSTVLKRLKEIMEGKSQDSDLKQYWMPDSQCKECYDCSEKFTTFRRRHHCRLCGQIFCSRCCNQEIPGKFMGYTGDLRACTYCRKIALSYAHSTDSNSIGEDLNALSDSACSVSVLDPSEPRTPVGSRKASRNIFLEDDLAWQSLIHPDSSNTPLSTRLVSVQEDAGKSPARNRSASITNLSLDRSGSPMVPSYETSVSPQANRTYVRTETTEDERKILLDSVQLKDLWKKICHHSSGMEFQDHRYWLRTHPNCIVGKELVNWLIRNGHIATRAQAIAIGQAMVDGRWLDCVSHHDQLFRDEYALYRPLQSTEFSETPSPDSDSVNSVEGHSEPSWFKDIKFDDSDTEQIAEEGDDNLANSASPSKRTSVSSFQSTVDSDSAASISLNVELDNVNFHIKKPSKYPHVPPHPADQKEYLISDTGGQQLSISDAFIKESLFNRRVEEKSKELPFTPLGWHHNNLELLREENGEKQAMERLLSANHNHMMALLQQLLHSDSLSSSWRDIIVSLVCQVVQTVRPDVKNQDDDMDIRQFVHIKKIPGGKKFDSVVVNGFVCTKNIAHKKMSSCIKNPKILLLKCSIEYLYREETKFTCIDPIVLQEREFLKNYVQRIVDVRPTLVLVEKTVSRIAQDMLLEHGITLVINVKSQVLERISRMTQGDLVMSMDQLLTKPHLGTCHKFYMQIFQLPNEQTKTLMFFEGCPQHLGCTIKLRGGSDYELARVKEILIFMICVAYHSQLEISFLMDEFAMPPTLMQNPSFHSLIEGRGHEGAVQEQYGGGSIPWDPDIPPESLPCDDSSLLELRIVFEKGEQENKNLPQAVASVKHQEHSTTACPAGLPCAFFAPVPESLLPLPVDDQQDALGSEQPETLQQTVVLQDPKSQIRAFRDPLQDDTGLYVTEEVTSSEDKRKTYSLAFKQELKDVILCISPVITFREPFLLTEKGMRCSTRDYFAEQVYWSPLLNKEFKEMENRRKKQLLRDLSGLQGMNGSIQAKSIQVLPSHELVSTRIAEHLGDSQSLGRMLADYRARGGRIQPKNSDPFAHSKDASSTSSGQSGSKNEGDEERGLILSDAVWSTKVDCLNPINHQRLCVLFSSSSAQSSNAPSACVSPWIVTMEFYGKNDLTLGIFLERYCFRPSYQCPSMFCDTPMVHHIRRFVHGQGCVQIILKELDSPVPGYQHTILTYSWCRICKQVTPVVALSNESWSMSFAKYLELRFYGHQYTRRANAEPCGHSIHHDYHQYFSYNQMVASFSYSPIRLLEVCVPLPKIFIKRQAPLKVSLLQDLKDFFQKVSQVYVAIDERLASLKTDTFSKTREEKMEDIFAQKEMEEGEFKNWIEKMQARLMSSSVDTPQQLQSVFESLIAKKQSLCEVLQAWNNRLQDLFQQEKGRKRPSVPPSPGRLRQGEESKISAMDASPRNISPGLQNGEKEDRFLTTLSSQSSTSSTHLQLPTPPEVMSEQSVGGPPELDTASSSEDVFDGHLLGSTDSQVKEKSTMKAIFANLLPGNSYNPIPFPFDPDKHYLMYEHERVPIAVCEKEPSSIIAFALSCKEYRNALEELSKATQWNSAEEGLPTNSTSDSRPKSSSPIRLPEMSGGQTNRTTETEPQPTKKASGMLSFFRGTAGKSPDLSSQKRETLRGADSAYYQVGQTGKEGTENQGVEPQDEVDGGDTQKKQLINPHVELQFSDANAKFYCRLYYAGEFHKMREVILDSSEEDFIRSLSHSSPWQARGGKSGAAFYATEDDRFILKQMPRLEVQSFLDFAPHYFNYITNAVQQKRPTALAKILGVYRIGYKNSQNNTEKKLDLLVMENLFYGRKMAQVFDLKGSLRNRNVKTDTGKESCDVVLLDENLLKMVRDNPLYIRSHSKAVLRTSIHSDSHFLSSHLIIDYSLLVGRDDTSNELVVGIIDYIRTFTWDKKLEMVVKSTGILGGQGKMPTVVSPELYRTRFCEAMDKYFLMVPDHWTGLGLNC
`Cc1cccc(-c2ccn(-c3cc(N4CCOCC4)nc(OCCc4ccc(NC(=O)NC5CCN(C(=O)CC[C@H](NC(=O)[C@@H]6C[C@@H](O)CN6C(=O)[C@@H](NC(=O)C6(F)CC6)C(C)(C)C)c6ccc(-c7scnc7C)cc6)CC5)cc4)n3)n2)c1` [Example 79, (2S,4R)-1-((S)-2-(1-fluorocyclopropane-1-carboxamido)-3,3-dimethylbutanoyl)-4-hydroxy-N—((S)-1-(4-(4-methylthiazol-5-yl)phenyl)-4-(4-(3-(4-(2-((4-morpholino-6-(3-(m-tolyl)-1H-pyrazol-1-yl)pyrimidin-2-yl)oxy)ethyl)phenyl)ureido)piperidin-1-yl)-4-oxobutyl) pyrrolidine-2-carboxamide]: the DC50 fell in the range of 1 to 100 nM.
For the compound `Cc1cccc(/C=N/Nc2cc(N3CCOCC3)nc(OCCc3ccc(NC(=O)CCCNC(=O)COc4cc(-c5scnc5C)ccc4CNC(=O)[C@@H]4C[C@@H](O)CN4C(=O)[C@@H](NC(=O)C4(F)CC4)C(C)(C)C)cc3)n2)c1` [Example 55, (2S,4R)-1-((S)-2-(1-fluorocyclopropane-1-carboxamido)-3,3-dimethylbutanoyl)-4-hydroxy-N-(2-(2-((4-((4-(2-((4-(2-((E)-3-methylbenzylidene)hydrazino)-6-morpholinopyrimidin-2-yl)oxy)ethyl)phenyl)amino)-4-oxobutyl)amino)-2-oxoethoxy)-4-(4-methylthiazol-5-yl)benzyl)pyrrolidine-2-carboxamide], the DC50 was in the range of 1 to 100 nM.
Take `Cc1cccc(/C=N/Nc2cc(N3CCOCC3)nc(OCCc3ccc(NC(=O)CCCCCNC(=O)CC[C@H](NC(=O)[C@@H]4C[C@@H](O)CN4C(=O)[C@@H](NC(=O)C4(F)CC4)C(C)(C)C)c4ccc(-c5scnc5C)cc4)cc3)n2)c1` [Example 52, (2S,4R)-1-((S)-2-(1-fluorocyclopropane-1-carboxamido)-3,3-dimethylbutanoyl)-4-hydroxy-N—((S)-4-((6-((4-(2-((4-(2-((E)-3-methylbenzylidene)hydrazino)-6-morpholinopyrimidin-2-yl)oxy)ethyl)phenyl)amino)-6-oxohexyl)amino)-1-(4-(4-methylthiazol-5-yl)phenyl)4-oxobutyl)pyrrolidine-2-carboxamide]: the DC50 lay within 1 to 100 nM.
As for `Cc1cccc(/C=N/Nc2cc(N3CCOCC3)nc(OCCc3ccc(NC(=O)CCCCCCCCCC(=O)N[C@H](C(=O)N4C[C@H](O)C[C@H]4C(=O)NCc4ccc(-c5scnc5C)cc4)C(C)(C)C)cc3)n2)c1` [Example 44, N^1—((S)-1-((2S,4R)-4-hydroxy-2-((4-(4-methylthiazol-5-yl)benzyl)carbamoyl)pyrrolidine-1-yl)-3,3-dimethyl-1-oxobutan-2-yl)-N^11-(4-(2-((4-(2-((E)-3-methylbenzylidene) hydrazino)-6-morpholinopyrimidin-2-yl)oxy)ethyl)phenyl)undecanediamide], the DC50 was in the range of 1 to 100 nM.
For the compound `Cc1cccc(/C=N/Nc2cc(N3CCOCC3)nc(OCCc3ccc(NC(=O)CCCCCCCCCCC(=O)Nc4cccc5c4C(=O)N(C4CCC(=O)NC4=O)C5)cc3)n2)c1` (stereo not drawn) [Example 36, (E)-N^1-(2-(2,6-dioxopiperidin-3-yl)-3-oxoisoindolin-4-yl)-N^12-(4-(2-((4-(2-(3-methylbenzylidene)hydrazino)-6-morpholinopyrimidin-2-yl)oxy)ethyl)phenyl)dodecanediamide], the DC50 lay within 100 to 10000 nM.
For `Cc1cccc(/C=N/Nc2cc(N3CCOCC3)nc(OCCc3ccc(NC(=O)CCCC(=O)N[C@H](C(=O)N4C[C@H](O)C[C@H]4C(=O)NCc4ccc(-c5scnc5C)cc4)C(C)(C)C)cc3)n2)c1` [Example 41, N^1—((S)-1-((2S,4R)-4-hydroxy-2-((4-(4-methylthiazol-5-yl)benzyl)carbamoyl)pyrrolidine-1-yl)-3,3-dimethyl-1-oxobutan-2-yl)-N^5-(4-(2-((4-(2-((E)-3-methylbenzylidene) hydrazino)-6-morpholinopyrimidin-2-yl)oxy)ethyl)phenyl)glutaramide], the DC50 fell in the range of 1 to 100 nM.
With `Cc1cccc(-c2ccn(-c3cc(N4CCOCC4)nc(OC4CCN(c5ccc(CN6CCN(c7cc8c(cc7F)C(=O)N(C7CCC(=O)NC7=O)C8=O)CC6)cc5)CC4)n3)n2)c1` (stereo not drawn) [Example 95, 2-(2,6-Dioxopiperidin-3-yl)-5-fluoro-6-(4-(4-(4-((4-morpholino-6-(3-(m-tolyl)-1H-pyrazol-1-yl)pyrimidin-2-yl)oxy)piperidin-1-yl)benzyl)piperazin-1-yl)isoindoline-1,3-dione], the DC50 was in the range of 100 to 10000 nM.
On to `Cc1cccc(/C=N/Nc2cc(N3CCOCC3)nc(OCCc3ccc(NC(=O)CSC(C)(C)[C@H](NC(=O)C4(F)CC4)C(=O)N4C[C@H](O)C[C@H]4C(=O)NCc4ccc(-c5scnc5C)cc4)cc3)n2)c1` [Example 57, (2S,4R)-1-((R)-2-(1-fluorocyclopropane-1-carboxamido)-3-methyl-3-((2-((4-(2-((4-(2-((E)-3-methylbenzylidene)hydrazino)-6-morpholinopyrimidin-2-yl)oxy)ethyl)phenyl)amino)-2-oxoethyl)thio)butanoyl)-4-hydroxy-N-(4-(4-methylthiazol-5-yl)benzyl)pyrrolidine-2-carboxamide], for which the DC50 is 1 to 100 nM.
As to `Cc1cccc(/C=N/Nc2cc(N3CCOCC3)nc(OCCc3ccc(NC(=O)CCCCCOc4ccc5c(c4)C(=O)N(C4CCC(=O)NC4=O)C5=O)cc3)n2)c1` (stereo not drawn) [Example 8, (E)-6-((2-(2,6-dioxopiperidin-3-yl)-1,3-dioxoisoindolin-5-yl)oxy)-N-(4-(2-((4-(2-(3-methylbenzylidene)hydrazino)-6-morpholinopyrimidin-2-yl)oxy)ethyl)phenyl)hexanamide], the DC50 was 100 to 10000 nM.
As for `Cc1cccc(/C=N/Nc2cc(N3CCOCC3)nc(OCCNC(=O)CCCCC(=O)N[C@H](C(=O)N3C[C@H](O)C[C@H]3C(=O)NCc3ccc(-c4scnc4C)cc3)C(C)(C)C)n2)c1` [Example 62, N^1—((S)-1-((2S,4R)-4-hydroxy-2-((4-(4-methylthiazol-5-yl)benzyl)carbamoyl)pyrrolidine-1-yl)-3,3-dimethyl-1-oxobutan-2-yl)-N^6-(2-((4-(2-((E)-3-methylbenzylidene) hydrazino)-6-morpholinopyrimidin-2-yl)oxy)ethyl)adipamide], the DC50 was in the range of 100 to 10000 nM.
Take `Cc1cccc(/C=N/Nc2cc(N3CCOCC3)nc(OCCc3ccc(NC(=O)CCCNC(=O)CSC(C)(C)[C@H](NC(=O)C4(F)CC4)C(=O)N4C[C@H](O)C[C@H]4C(=O)NCc4ccc(-c5scnc5C)cc4)cc3)n2)c1` [Example 59, (2S,4R)-1-((R)-2-(1-fluorocyclopropane-1-carboxamido)-3-methyl-3-((2-((4-((4-(2-((4-(2-((E)-3-methylbenzylidene)hydrazino)-6-morpholinopyrimidin-2-yl)oxy)ethyl)phenyl)amino)-4-oxobutyl)amino)-2-oxoethyl)thio)butanoyl)-4-hydroxy-N-(4-(4-methylthiazol-5-yl)benzyl)pyrrolidine-2-carboxamide]: the DC50 fell in the range of 100 to 10000 nM.
Regarding `Cc1cccc(/C=N/Nc2cc(N3CCOCC3)nc(OCCc3ccc(NC(=O)CCCCCCCNc4ccc5c(c4)C(=O)N(C4CCC(=O)NC4=O)C5=O)cc3)n2)c1` (stereo not drawn) [Example 18, (E)-8-((2-(2,6-dioxopiperidin-3-yl)-1,3-dioxoisoindolin-5-yl)amino)-N-(4-(2-((4-(2-(3-methylbenzylidene)hydrazino)-6-morpholinopyrimidin-2-yl)oxy)ethyl)phenyl) octanamide], the DC50 was 100 to 10000 nM.
